Results published in patent US20130210143A1, “NOVEL METHODS FOR PREVENTING OR TREATING DIABETES” (FUNDACION PUBLICA ANDALUZA PROGRESO Y SALUD, priority 2010, published 2013).
Entries after “also recorded” stand apart in the source; their conditions may differ.

Tests used:
SHP = experiment: Quantitative RT-PCR of SHP (LRH-1 downstream target) transcript levels in treated human islets; format: cell-based; details: for Further stimulation of SHP expression: human islets, increased concentration of Formula II or addition of 17β-estradiol
Description: (§1) INS-1E cells or islets (rat or human) were cultured in phenol red free medium containing 10% Charcoal-stripped FCS for 48 h. The latter removes all traces of endogenous steroids, which may skew results. Subsequently, 0.0001% DMSO (vehicle) and/or 10 nM 17β-estradiol were added to the media. Alternatively human islets were also treated with increasing concentrations of either DMSO (vehicule) or with a combination of estrogen and the LRH-1 agonist of Formula II (SevenHills Pharma, Fort Collins, USA) for various time intervals. For apoptosis studies (FIG. 8A), islets were pre-treated with 0.1% DMSO (vehicule) or with 10 μM of the LRH-1 agonist of Formula II. Twenty-four hours later, DMSO or the LRH-1 agonist of Formula II were added again to the medium and incubated for 1 extra hour prior to the addition of either a cocktail of human cytokines (2 ng/ml IFN-γ, IL-1β and TNF-α). Samples of 50 islets were then collected at 24 and 72 hours. The media was replenished with DMSO and the LRH-1 agonist of Formula II at 24 and 48 hours.
(§2) Total RNA was extracted using the RNeasy Micro Kit (Qiagen) and 1-2 μg was converted into cDNA with the Superscript II Reverse transcriptase (Invitrogen). Primers were designed using the Primer Express software (Applera Europe, Rotkreuz, Switzerland) and sequences are provided in Table 1. Real time PCR was performed using an ABI 7000 Sequence Detection System (Applera Europe), and PCR products were quantified fluorometrically using the FastStart Universal SYBR Green Master (Roche Diagnostics, Rotkreuz, Switzerland). Three distinct amplifications were performed in duplicate for each transcript, and mean values were normalized to the mean value of the reference mRNA cyclophilin.

LRH-1 = experiment: Quantitative RT-PCR of LRH-1 transcript levels in treated human islets; format: cell-based; details: for LRH-1 expression (transcript levels): 10 nM 17β-estradiol (6 hours) or 10 or 50 uM Formula II (any time point)
Description: as §1, §2

Type 2 diabetic islets = experiment: Glucose-stimulated insulin secretion, islets from Type 2 diabetic donors; format: cell-based, human
Description: (§3) Twenty human islets/sample were preincubated with KRBH buffer (135 mM NaCl, 3.6 mM KCl, 2 mM NaHCO3, 0.5 mM NaH2PO4, 0.5 mM MgSO4, 1.5 mM CaCl2, 10 mM HEPES, pH 7.4, and 0.1% bovine serum albumin) containing 2.5 mM glucose for 30 min. Cells were then incubated for 30 min in KRBH buffer containing 2.5 mM or 16.5 mM glucose. In some instances islets were also cultured in the presence of increasing concentrations of a LRH-1 agonist of Formula II or glibenclamide. Insulin content, obtained by 10% acetic acid/ethanol (v/v) treatment on islets, and secreted insulin were quantified using the rat insulin enzyme immunoassay kit (Spi-Bio, Montigny le Bretonneux, France).

human islets [1] = experiment: Cytokine-induced apoptosis in human islets (Cell Death Detection ELISA); format: cell-based; details: 10 uM, cytokines 2 ng/ml IFN-γ, IL-1β and TNF-α, 24 hours post-treatment
Description: INS-1E cells or islets (rat or human) were cultured in phenol red free medium containing 10% Charcoal-stripped FCS for 48 h. The latter removes all traces of endogenous steroids, which may skew results. Subsequently, 0.0001% DMSO (vehicle) and/or 10 nM 17β-estradiol were added to the media. Alternatively human islets were also treated with increasing concentrations of either DMSO (vehicule) or with a combination of estrogen and the LRH-1 agonist of Formula II (SevenHills Pharma, Fort Collins, USA) for various time intervals. For apoptosis studies (FIG. 8A), islets were pre-treated with 0.1% DMSO (vehicule) or with 10 μM of the LRH-1 agonist of Formula II. […]
For proliferation, 10 μM BrdU was added to INS-1E cells for 3 h, and to rat or human islets for 24 h. […] Cell apoptosis induced either by cytokines or streptozotocin was measured using the TUNEL assay (In Situ Cell Death Detection Kit, Roche). Alternatively, the Cell Death Detection ELISA^PLUS (Roche) was used to quantify the degree of cytoplasmic histone-associated-DNA-fragments. Results of BrdU and TUNEL assays are expressed as a percentage of BrdU- or TUNEL-positive cells (fluorescein- or TMR-red-labelled nuclei) over the total amount of cells (nuclei staining by DAPI). […]

human islets [2] = experiment: MTT toxicity test (cell viability) in isolated human islets; format: cell-based; details: for Islet viability (MTT): islets of the first Type 2 diabetic donor, 48 h, Formula II at 50 uM
Description: The MTT (C,N-diphenyl-N′-4,5-dimethyl thiazol-2-yl tetrazolium bromide) colorimetric assay (reduction of tetrazolium salt to formazan) was used to measure cell viability. The assay provides an indirect estimation of mitochondrial oxidative processes of living cells (Janjic, 1992). Briefly, 40 isolated human islets were incubated for 24 or 48 hours with DMSO or a combination of DMSO and the LRH-1 agonist of Formula II. Islets were washed and pre-incubated with KRBH at 37° C. for 40 minutes. Islets were then incubated at 37° C. for 90 minutes with KRBH containing yellow MTT (0.5 mg/ml). Cells were wash and incubated for 20 minutes at room temperature in DMSO to solubilize formazan crystals. Colorimetric measurements were performed at 570 nm with reference wavelength 650 nm automatically subtracted.

control islets = experiment: Glucose-stimulated insulin secretion, control (non-diabetic) human islets; format: cell-based
Description: as §3

[3] = molecular target: T1, ligand binding domain of human LRH1 (Homo sapiens, UniProt O00482); details: Whitby et al. (2006); cited from earlier work
T1 construct: made in house
T1 sequence (O00482 300-541): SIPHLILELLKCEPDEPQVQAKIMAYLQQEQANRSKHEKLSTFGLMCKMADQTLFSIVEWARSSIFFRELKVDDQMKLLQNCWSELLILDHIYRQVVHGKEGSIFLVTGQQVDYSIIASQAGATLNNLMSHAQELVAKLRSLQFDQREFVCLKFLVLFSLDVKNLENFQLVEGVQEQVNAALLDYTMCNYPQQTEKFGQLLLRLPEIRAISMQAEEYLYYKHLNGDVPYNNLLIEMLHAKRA

[4] = islets from a second Type 2 diabetic donor

Row | Structure (SMILES) | Further stimulation of SHP expression (SHP) | LRH-1 expression (transcript levels) (LRH-1) | SHP transcript levels, increase (SHP; human islets treated for 10 hours, transient) | Glucose-induced insulin secretion (Type 2 diabetic islets; islets from a Type 2 diabetic donor, 50 uM, not significant) | Insulin secretion in response to high glucose concentrations (Type 2 diabetic islets; [4]) | Insulin secretion in response to low glucose concentrations (Type 2 diabetic islets; [4]) | Cytokine-induced enrichment in apoptotic cells, 24 hours (human islets [1]) | Viability by MTT (cytotoxicity) (human islets [2]; human islets, up to 50 uM, 24 or 48 hours post treatment) | Islet viability (MTT) (human islets [2]) | Increase in basal insulin exocytosis (control islets; 50 uM, low glucose) | Glucose-induced insulin secretion (control islets; 16.5 mM glucose) | EC50 [3] | LRH-1 expression on addition to 17β-estradiol (LRH-1; Formula II combined with 17β-estradiol) | Insulin secretion at high glucose as compared to control islets (Type 2 diabetic islets; islets from a Type 2 diabetic donor, high glucose (16.5 mM)) | Increase in insulin secretion at low glucose (Type 2 diabetic islets; islets from a Type 2 diabetic donor, low glucose)
1 | C[C@]12CC[C@@H]3c4ccc(O)cc4CC[C@H]3[C@@H]1CC[C@@H]2O [17β-estradiol, reference compound] | did not further stimulate expression of SHP | transiently increased |  |  |  |  |  |  |  |  |  |  |  |  | 
2 | CCC/C=C(\CCC)C1=C(c2cccc(OC)c2)C2(Nc3ccccc3)CCCC2C1 (stereo not drawn) [Formula II] | did not further stimulate expression of SHP | did not enhance transcript levels | 2 fold | slight increase | increased insulin secretion | increased insulin secretion | completely abrogated | no toxic effects; also recorded: no apparent detrimental effect | slightly reduced | 50% | unchanged | 430 nM | prevented the induction of LRH-1 expression |  | 
3 | COc1ccc(Cl)cc1C(=O)NCCc1ccc(S(=O)(=O)NC(=O)NC2CCCCC2)cc1 [Glibenclamide, reference compound] |  |  |  |  |  |  |  |  | impaired cell viability |  |  |  |  | 214% | 80%
